Laboratory results as given in US11919908B2, “Substituted pyrrolo[2,3-d]pyrimidine compounds as JAK2 V617F inhibitors” (Incyte Corporation, priority 2020, dated 2024).

Tests used:
[1] = molecular target: T1, pseudo-kinase domain (JH2) of human V617F mutant JAK2 (Homo sapiens, UniProt O60674, F794H/V617F/W659A/W777A); assay: JAK2 LanthaScreen JH2-V617F Binding Assay; details: 50 nM Fluorescent JAK2-JH2 Tracer, 1 hour at 25° C.
T1 construct: pseudo-kinase domain (JH2, amino-acids 536-812 with 3 surface mutations W659A, W777A, F794H); His (C); purchased BPS Bioscience 79498; host or cells: baculovirus expression system
T1 sequence (O60674 536-812 V617F/W659A/W777A/F794H): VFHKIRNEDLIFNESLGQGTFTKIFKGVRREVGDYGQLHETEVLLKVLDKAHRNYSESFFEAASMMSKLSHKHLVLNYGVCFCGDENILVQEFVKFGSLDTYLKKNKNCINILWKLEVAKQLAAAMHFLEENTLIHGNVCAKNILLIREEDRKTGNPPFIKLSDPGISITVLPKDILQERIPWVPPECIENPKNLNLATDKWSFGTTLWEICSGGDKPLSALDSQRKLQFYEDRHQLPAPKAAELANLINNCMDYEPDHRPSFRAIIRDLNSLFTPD
Experimental: (§1) Example C. JAK2 LanthaScreen JH2-V617F Binding Assay JAK2 JH2-V617F binding assay utilizes pseudo-kinase domain (JH2, amino-acids 536-812 with 3 surface mutations […]) of human V617F mutant JAK2 expressed as C-terminal His-Avi-tagged, biotinylated protein in a baculovirus expression system (BPS Bioscience, Catalog #79498). The assay was conducted in black 384-well polystyrene plates in a final reaction volume of 20 μL. JAK2 JH2-V617F (0.26 nM) was incubated with compounds (100 nL serially diluted in DMSO) in the presence of 50 nM Fluorescent JAK2-JH2 Tracer (MedChem Express Catalog #HY-102055) and 0.25 nM Streptavidin-Tb cryptate (Cisbio Part #610SATLB) in assay buffer (50 mM Tris, pH=7.5, 10 mM MgCl2, 0.01% Brij-35, 0.1% BSA, 1 mM EGTA, 5% Glycerol and 5 mM DTT). Non-specific binding was accessed in the presence of 2 mM ATP. After incubation for 1 hour at 25° C., LanthaScreen signals were read on a PHERAstar FS plate reader (BMG LABTECH). Data was analyzed with IDBS XLfit and GraphPad Prism 5.0 software using a four parameter dose response curve to determine IC50 for each compound.

[2] = molecular target: T2, pseudo-kinase domain (JH2) of human Wild Type JAK2 (Homo sapiens, UniProt O60674, F794H/W659A/W777A); assay: JAK2 LanthaScreen JH2-WT Binding Assay; details: 50 nM Fluorescent JAK2-JH2 Tracer, 1 hour at 25° C.
T2 construct: pseudo-kinase domain (JH2, amino-acids 536-812 with 3 surface mutations W659A, W777A, F794H); His (C); purchased BPS Bioscience 79463; host or cells: baculovirus expression system
T2 sequence (O60674 536-812 W659A/W777A/F794H): as the sequence (O60674 536-812 V617F/W659A/W777A/F794H) above, with F82V counted along it
Experimental: as §1, with “Example B.” for “Example C.”, “LanthaScreen JH2-WT” for “LanthaScreen JH2-V617F”, “JAK2 JH2-WT” for “JAK2 JH2-V617F”, “human Wild Type” for “human V617F mutant”, “Catalog #79463).” for “Catalog #79498).”, “JAK2 JH2-WT (0.145” for “JAK2 JH2-V617F (0.26”

[3] = molecular target: T3, catalytic domain (JH1) of human JAK2 (Homo sapiens, UniProt O60674); assay: JAK2 LanthaScreen JH1 Binding Assay; details: 50 nM Fluorescent JAK2-JH1 Tracer, 2 hours at 25° C.
T3 construct: catalytic domain (JH1, amino acids 826-1132) of human JAK2; FLAG (N); purchased Carna Biosciences 08-445-20N; host or cells: baculovirus expression system
T3 sequence (O60674 826-1132): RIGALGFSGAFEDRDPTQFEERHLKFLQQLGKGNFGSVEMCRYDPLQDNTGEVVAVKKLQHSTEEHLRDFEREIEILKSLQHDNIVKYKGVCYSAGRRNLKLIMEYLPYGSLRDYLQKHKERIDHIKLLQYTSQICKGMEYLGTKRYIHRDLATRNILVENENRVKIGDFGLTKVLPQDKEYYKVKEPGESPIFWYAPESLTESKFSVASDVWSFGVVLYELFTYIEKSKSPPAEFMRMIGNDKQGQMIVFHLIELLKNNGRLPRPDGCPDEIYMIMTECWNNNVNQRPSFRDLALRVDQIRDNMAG
Experimental: Example A. JAK2 LanthaScreen […] Binding Assay JAK2 JH1 binding assay utilizes catalytic domain (JH1, amino acids 826-1132) of human JAK2 expressed as N-terminal FLAG-tagged, biotinylated protein in a baculovirus expression system (Carna Biosciences, Product #08-445-20N). The assay was conducted in black 384-well polystyrene plates in a final reaction volume of 20 μL. JAK2 JH1 (1.5 nM) was incubated with compounds (100 nL serially diluted in DMSO) in the presence of 50 nM Fluorescent JAK2-JH1 Tracer and 0.5 nM Streptavidin-Tb cryptate (Cisbio Part #610SATLB) in assay buffer (50 mM Tris, pH=7.5, 10 mM MgCl2, 0.01% Brij-35, 0.1% BSA, 1 mM EGTA, 5% Glycerol and 5 mM DTT). Non-specific binding was accessed in the presence of 2 mM ATP. After incubation for 2 hours at 25° C., LanthaScreen signals were read on a PHERAstar FS plate reader (BMG LABTECH). Data was analyzed with IDBS XLfit and GraphPad Prism 5.0 software using a four parameter dose response curve to determine IC50 for each compound.

Row | Compound | IC50 [1] [nM] | IC50 [2] [nM] | IC50 [3] [nM]
1 | CN(C)S(=O)(=O)c1ccc(-c2[nH]c3nc(N)[nH]c(=O)c3c2-c2cccc3c2OCO3)cc1 [Example 44, 4-(2-Amino-5-(benzo[d] [1,3]dioxol-4-yl)-4-oxo-4,7-dihydro-3H-pyrrolo[2,3-d]pyrimidin-6-yl)-N,N-dimethylbenzene sulfonamide] | 100 to 500 | 100 to 500 | > 2500
2 | CN(C)S(=O)(=O)c1ccc(-c2[nH]c3nc(N)[nH]c(=O)c3c2-c2cccc3c2cnn3C)cc1 [Example 16, 4-(2-Amino-5-(1-methyl-1H-indazol-4-yl)-4-oxo-4,7-dihydro-3H-pyrrolo[2,3-d]pyrimidin-6-yl)-N,N-dimethylbenzene sulfonamide] | > 2500 | > 2500 | > 2500
3 | CN(C)S(=O)(=O)c1ccc(-c2[nH]c3nc(N)[nH]c(=O)c3c2-c2cnn(Cc3ccc(C(=O)O)cc3)c2)cc1 [Example 52, 4-((4-(2-amino-6-(4-(N,N-dimethylsulfamoyl)phenyl)-4-oxo-4,7-dihydro-3H-pyrrolo[2,3-d]pyrimidin-5-yl)-1H-pyrazol-1-yl)methyl)benzoic acid] | 100 to 500 | 100 to 500 | > 2500
4 | 4-(2-Amino-5- (2,3-difluorobenzofuran-6- yl)-4-oxo-4,7-dihydro-3H- pyrrolo[2,3-d]pyrimidin-6- yl)-N,N-dimethylbenzene sulfonamide [Example 26] | 500 to 1000 | 500 to 1000 | 1000 to 2500
5 | CN(C)S(=O)(=O)c1ccc(-c2[nH]c3nc(N)[nH]c(=O)c3c2-c2ccccc2F)cc1 [Example 64, 4-(2-Amino-5-(2-fluorophenyl)-4-oxo-4,7-dihydro-3H-pyrrolo[2,3-d]pyrimidin-6-yl)-N,N-dimethylbenzene-sulfonamide] | 100 to 500 | 100 to 500 | 100 to 500
6 | CN(C)S(=O)(=O)c1ccc(-c2[nH]c3nc(N)[nH]c(=O)c3c2-c2cccc(CN)c2)cc1 [Example 45, 4-(2-Amino-5-(3-(aminomethyl)phenyl)-4-oxo-4,7-dihydro-3H-pyrrolo[2,3-d]pyrimidin-6-yl)-N,N-dimethylbenzenesulfonamide] | > 2500 | 1000 to 2500 | > 2500
7 | CN(C)S(=O)(=O)c1ccc(-c2[nH]c3nc(N)[nH]c(=O)c3c2C2=CCCC2)cc1 [Example 47, 4-(2-Amino-5-(cyclopent-1-en-1-yl)-4-oxo-4,7-dihydro-3H-pyrrolo[2,3-d]pyrimidin-6-yl)-N,N-dimethylbenzenesulfonamide] | 100 to 500 | 100 to 500 | 100 to 500
8 | COc1cc(C(N)=O)ccc1-c1c(-c2ccc(S(=O)(=O)N(C)C)cc2)[nH]c2nc(N)[nH]c(=O)c12 [Example 23, 4-(2-Amino-6-(4-(N,N-dimethylsulfamoyl)phenyl)-4-oxo-4,7-dihydro-3H-pyrrolo[2,3-d]pyrimidin-5-yl)-3-methoxy-benzamide] | 500 to 1000 | 500 to 1000 | > 2500
9 | CN(C)S(=O)(=O)c1ccc(-c2[nH]c3nc(N)[nH]c(=O)c3c2-c2ccc(S(C)(=O)=O)cc2)cc1 [Example 13, 4-(2-Amino-5-(4-(methylsulfonyl)phenyl)-4-oxo-4,7-dihydro-3H-pyrrolo[2,3-d]pyrimidin-6-yl)-N,N-dimethylbenzene sulfonamide] | 100 to 500 | 100 to 500 | 1000 to 2500
10 | Cc1cccc(-c2c(-c3ccc(C(=O)N(C)C)cc3)[nH]c3nc(N)[nH]c(=O)c23)c1 [Example 60, 4-(2-Amino-4-oxo-5-(3-tolyl)-4,7-dihydro-3H-pyrrolo[2,3-d]pyrimidin-6-yl)-N,N-dimethylbenzamide] | 500 to 1000 | 500 to 1000 | > 2500
11 | CN(C)S(=O)(=O)c1ccc(-c2[nH]c3nc(N)[nH]c(=O)c3c2-c2cccc3cn[nH]c23)cc1 [Example 20, 4-(2-Amino-5-(1H-indazol-7-yl)-4-oxo-4,7-dihydro-3H-pyrrolo[2,3-d]pyrimidin-6-yl)-N,N-dimethylbenzene sulfonamide] | > 2500 | > 2500 | > 2500
12 | CN(C)S(=O)(=O)c1ccc(-c2[nH]c3nc(N)[nH]c(=O)c3c2-c2cnn(C3CCS(=O)(=O)C3)c2)cc1 (stereo not drawn) [Example 36, 4-(2-Amino-5-(1-(1,1-dioxidotetrahydrothiophen-3-yl)-1H-pyrazol-4-yl)-4-oxo-4,7-dihydro-3H-pyrrolo[2,3-d]pyrimidin-6-yl)-N,N-dimethylbenzene sulfonamide] | 1000 to 2500 | 1000 to 2500 | 1000 to 2500
13 | CN(C)S(=O)(=O)c1ccc(-c2[nH]c3nc(N)[nH]c(=O)c3c2-c2cnn(Cc3ccc(C#N)cc3)c2)cc1 [Example 31, 4-(2-Amino-5-(1-(4-cyanobenzyl)-1H-pyrazol-4-yl)-4-oxo-4,7-dihydro-3H-pyrrolo[2,3-d]pyrimidin-6-yl)-N,N-dimethylbenzene sulfonamide] | 1000 to 2500 | 1000 to 2500 | 1000 to 2500
14 | COc1ccccc1-c1c(-c2ccc(S(C)(=O)=O)cc2)[nH]c2nc(N)[nH]c(=O)c12 [Example 62, 2-Amino-5-(2-methoxyphenyl)-6-(4-(methylsulfonyl)phenyl)-3,7-dihydro-4H-pyrrolo [2,3-d]pyrimidin-4-one] | 500 to 1000 | 1000 to 2500 | > 2500
15 | CN(C)S(=O)(=O)c1ccc(-c2[nH]c3nc(N)[nH]c(=O)c3c2-c2cccc(CO)c2)cc1 [Example 4, 4-(2-Amino-5-(3-(hydroxymethyl)phenyl)-4-oxo-4,7-dihydro-3H-pyrrolo [2,3-d]pyrimidin-6-yl)-N,N-dimethyl-benzene sulfonamide] | 500 to 1000 | 500 to 1000 | 1000 to 2500
16 | COc1ccccc1-c1c(-c2ccc(C(=O)N(C)C)cc2)[nH]c2nc(N)[nH]c(=O)c12 [Example 56, 4-(2-Amino-5-(2-methoxyphenyl)-4-oxo-4,7-dihydro-3H-pyrrolo[2,3-d]pyrimidin-6-yl)-N,N-dimethylbenzamide] | 500 to 1000 | 500 to 1000 | > 2500
17 | CNC(=O)c1ccc(-c2c(-c3ccc(S(=O)(=O)N(C)C)cc3)[nH]c3nc(N)[nH]c(=O)c23)cc1 [Example 11, 4-(2-Amino-6-(4-(N,N-dimethyl-sulfamoyl)phenyl)-4-oxo-4,7-dihydro-3H-pyrrolo[2,3-d]pyrimidin-5-yl)-N-methylbenzamide] | 100 to 500 | 100 to 500 | 1000 to 2500
18 | CN(C)S(=O)(=O)c1ccc(-c2[nH]c3nc(N)[nH]c(=O)c3c2-c2ccnn2C)cc1 [Example 46, 4-(2-Amino-5-(1-methyl-1H-pyrazol-5-yl)-4-oxo-4,7-dihydro-3H-pyrrolo[2,3-d]pyrimidin-6-yl)-N,N-dimethylbenzenesulfonamide] | > 2500 | > 2500 | > 2500
19 | COc1nn(Cc2ccc(C(=O)O)cc2)cc1-c1c(-c2ccc(S(=O)(=O)N(C)C)cc2)[nH]c2nc(N)[nH]c(=O)c12 [Example 50] | ≤ 100 | ≤ 100 | > 2500
